According to BindingDB's records for doi:10.1016/s0028-3908(05)80009-7 (Universit&Eacute, 1994):
Where a SMILES comes first, the peptide text is derived from it. [ ]: non-standard residue; d: D form. ξ: configuration not given here. Ile(3ξ) = CCC(C)[C@H](N)C(=O)O

Target: T1, Pituitary adenylate cyclase-activating polypeptide (Rattus norvegicus, UniProt P13589)
T1 sequence (P13589 whole entry): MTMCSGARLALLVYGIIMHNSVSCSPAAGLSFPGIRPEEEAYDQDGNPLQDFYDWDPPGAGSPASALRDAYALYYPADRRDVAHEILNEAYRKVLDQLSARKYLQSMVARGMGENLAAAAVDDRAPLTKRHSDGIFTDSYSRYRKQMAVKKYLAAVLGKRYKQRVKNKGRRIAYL

Compound	Ki [µM]
CCC(C)[C@H](NC(=O)CNC(=O)[C@@H](N)CC(=O)O)C(=O)N[C@@H](Cc1ccccc1)C(=O)N[C@H](C(=O)N[C@@H](CC(=O)O)C(=O)N[C@@H](CO)C(=O)N[C@@H](Cc1ccc(O)cc1)C(=O)N[C@@H](CO)C(=O)N[C@@H](CCCN=C(N)N)C(=O)N[C@@H](Cc1ccc(O)cc1)C(=O)N[C@@H](CCCN=C(N)N)C(=O)N[C@@H](CCCCN)C(=O)N[C@@H](CCC(N)=O)C(=O)N[C@@H](CCSC)C(=O)N[C@@H](C)C(=O)N[C@H](C(=O)N[C@@H](CCCCN)C(=O)N[C@@H](CCCCN)C(=O)N[C@@H](Cc1ccc(O)cc1)C(=O)N[C@@H](CC(C)C)C(=O)N[C@@H](C)C(=O)N[C@@H](C)C(=O)N[C@H](C(=O)N[C@@H](CC(C)C)C(=O)NCC(=O)N[C@@H](CCCCN)C(=O)N[C@@H](CCCN=C(N)N)C(=O)N[C@@H](Cc1ccc(O)cc1)C(=O)N[C@@H](CCCCN)C(=O)N[C@@H](CCC(N)=O)C(=O)N[C@@H](CCCN=C(N)N)C(=O)N[C@H](C(=O)N[C@@H](CCCCN)C(=O)N[C@@H](CC(N)=O)C(=O)N[C@@H](CCCCN)C(N)=O)C(C)C)C(C)C)C(C)C)[C@@H](C)O (some centres undefined) [PACAP(3-38)] (H-DG[Ile(3ξ)]FTDSYSRYRKQMAVKKYLAAVLGKRYKQRVKNK-NH2)	0.01
CNC(=O)[C@H](Cc1ccc(O)cc1)NC(=O)[C@H](CCCN=C(N)N)NC(=O)[C@H](CCCCN)NC(=O)CNC(=O)[C@H](CC(C)C)NC(=O)[C@@H](NC(=O)[C@H](C)NC(=O)[C@H](C)NC(=O)[C@H](CC(C)C)NC(=O)[C@H](Cc1ccc(O)cc1)NC(=O)[C@H](CCCCN)NC(=O)[C@H](CCCCN)NC(=O)[C@@H](NC(=O)[C@H](C)NC(=O)[C@H](CCSC)NC(=O)[C@H](CCC(N)=O)NC(=O)[C@H](CCCCN)NC(=O)[C@H](CCCN=C(N)N)NC(=O)[C@H](Cc1ccc(O)cc1)NC(=O)[C@H](CCCN=C(N)N)NC(=O)[C@H](CO)NC(=O)[C@H](Cc1ccc(O)cc1)NC(=O)[C@H](CO)NC(=O)[C@H](CC(=O)O)NC(=O)[C@@H](NC(=O)[C@@H](N)Cc1ccccc1)[C@@H](C)O)C(C)C)C(C)C [PACAP(6-31)] (H-FTDSYSRYRKQMAVKKYLAAVLGKRY-NHMe)	0.003
CCC(C)[C@H](NC(=O)CNC(=O)[C@H](CC(=O)O)NC(=O)[C@H](Cc1ccccc1)NC(=O)[C@@H](N)Cc1cnc[nH]1)C(=O)N[C@@H](Cc1ccccc1)C(=O)N[C@H](C(=O)N[C@@H](CC(=O)O)C(=O)N[C@@H](CO)C(=O)N[C@@H](Cc1ccc(O)cc1)C(=O)N[C@@H](CO)C(=O)N[C@@H](CCCN=C(N)N)C(=O)N[C@@H](Cc1ccc(O)cc1)C(=O)N[C@@H](CCCN=C(N)N)C(=O)N[C@@H](CCCCN)C(=O)N[C@@H](CCC(N)=O)C(=O)N[C@@H](CCSC)C(=O)N[C@@H](C)C(=O)N[C@H](C(=O)N[C@@H](CCCCN)C(=O)N[C@@H](CCCCN)C(=O)N[C@@H](Cc1ccc(O)cc1)C(=O)N[C@@H](CC(C)C)C(=O)N[C@@H](C)C(=O)N[C@@H](C)C(=O)N[C@H](C(=O)N[C@@H](CC(C)C)C(N)=O)C(C)C)C(C)C)[C@@H](C)O (some centres undefined) [[Phe2]PACAP(1-27)]	0.06
H-FTDSYSRYRKQMAVKKYLAAVL-NH2 [PACAP(5-27)]	1
CC[C@H](C)[C@H](NC(=O)CNC(=O)[C@H](CC(=O)O)NC(=O)[C@H](CCCN=C(N)N)NC(=O)[C@@H](N)Cc1cnc[nH]1)C(=O)N[C@@H](Cc1ccccc1)C(=O)N[C@H](C(=O)N[C@@H](CC(=O)O)C(=O)N[C@@H](CO)C(=O)N[C@@H](Cc1ccc(O)cc1)C(=O)N[C@@H](CO)C(=O)N[C@@H](CCCN=C(N)N)C(=O)N[C@@H](Cc1ccc(O)cc1)C(=O)N[C@@H](CCCN=C(N)N)C(=O)N[C@@H](CCCCN)C(=O)N[C@@H](CCC(N)=O)C(=O)N[C@@H](CCSC)C(=O)N[C@@H](C)C(=O)N[C@H](C(=O)N[C@@H](CCCCN)C(=O)N[C@@H](CCCCN)C(=O)N[C@@H](Cc1ccc(O)cc1)C(=O)N[C@@H](CC(C)C)C(=O)N[C@@H](C)C(=O)N[C@@H](C)C(=O)N[C@H](C(=O)N[C@@H](CC(C)C)C(N)=O)C(C)C)C(C)C)[C@@H](C)O [[Arg2]PACAP(1-27)]	1
H-SRYRKQMAVKKYLAAVL-NH2 [PACAP(11-27)]	6
CCC(C)[C@H](NC(=O)CNC(=O)[C@H](CC(=O)O)NC(=O)[C@@H](C)NC(=O)[C@@H](N)Cc1cnc[nH]1)C(=O)N[C@@H](Cc1ccccc1)C(=O)N[C@H](C(=O)N[C@@H](CC(=O)O)C(=O)N[C@@H](CO)C(=O)N[C@@H](Cc1ccc(O)cc1)C(=O)N[C@@H](CO)C(=O)N[C@@H](CCCN=C(N)N)C(=O)N[C@@H](Cc1ccc(O)cc1)C(=O)N[C@@H](CCCN=C(N)N)C(=O)N[C@@H](CCCCN)C(=O)N[C@@H](CCC(N)=O)C(=O)N[C@@H](CCSC)C(=O)N[C@@H](C)C(=O)N[C@H](C(=O)N[C@@H](CCCCN)C(=O)N[C@@H](CCCCN)C(=O)N[C@@H](Cc1ccc(O)cc1)C(=O)N[C@@H](CC(C)C)C(=O)N[C@@H](C)C(=O)N[C@@H](C)C(=O)N[C@H](C(=O)N[C@@H](CC(C)C)C(=O)NCC(=O)N[C@@H](CCCCN)C(=O)N[C@@H](CCCN=C(N)N)C(=O)N[C@@H](Cc1ccc(O)cc1)C(=O)N[C@@H](CCCCN)C(=O)N[C@@H](CCC(N)=O)C(=O)N[C@@H](CCCN=C(N)N)C(=O)N[C@H](C(=O)N[C@@H](CCCCN)C(=O)N[C@@H](CC(N)=O)C(=O)N[C@@H](CCCCN)C(N)=O)C(C)C)C(C)C)C(C)C)[C@@H](C)O (some centres undefined) [[DAla2]PACAP(1-38)]	0.0007
CSCC[C@H](NC(=O)[C@H](CCC(N)=O)NC(=O)[C@H](CCCCN)NC(=O)[C@H](CCCNC(=N)N)NC(=O)[C@H](Cc1ccc(O)cc1)NC(=O)[C@H](CCCNC(=N)N)NC(=O)[C@H](CO)NC(=O)[C@H](Cc1ccc(O)cc1)NC(=O)[C@H](CO)NC(=O)[C@H](CC(=O)O)NC(=O)[C@@H](NC(=O)[C@@H](N)Cc1ccccc1)[C@@H](C)O)C(=O)N[C@@H](C)C(=O)N[C@H](C(=O)N[C@@H](CCCCN)C(=O)N[C@@H](CCCCN)C(=O)N[C@@H](Cc1ccc(O)cc1)C(=O)N[C@@H](CC(C)C)C(=O)N[C@@H](C)C(=O)N[C@@H](C)C(=O)N[C@H](C(=O)N[C@@H](CC(C)C)C(=O)NCC(=O)N[C@@H](CCCCN)C(=O)N[C@@H](CCCNC(=N)N)C(=O)N[C@@H](Cc1ccc(O)cc1)C(=O)N[C@@H](CCCCN)C(=O)N[C@@H](CCC(N)=O)C(=O)N[C@@H](CCCNC(=N)N)C(=O)N[C@H](C(=O)N[C@@H](CCCCN)C(=O)N[C@@H](CC(N)=O)C(=O)N[C@@H](CCCCN)C(N)=O)C(C)C)C(C)C)C(C)C	0.002
[C][C][C]([C])[C@H]([N]C(=O)[C][N]C(=O)[C@H]([C][C]C([O])=O)[N]C(=O)[C@@H]([N])[C][O])C(=O)[N][C@@H]([C]c1ccccc1)C(=O)[N][C@H](C(=O)[N][C@@H]([C]C([O])=O)C(=O)[N][C@@H]([C][O])C(=O)[N][C@@H]([C]c1ccc([O])cc1)C(=O)[N][C@@H]([C][O])C(=O)[N][C@@H]([C][C][C]N=C([N])[N])C(=O)[N][C@@H]([C]c1ccc([O])cc1)C(=O)[N][C@@H]([C][C][C]N=C([N])[N])C(=O)[N][C@@H]([C][C][C][C][N])C(=O)[N][C@@H]([C][C]C([N])=O)C(=O)[N][C@@H]([C][C]S[C])C(=O)[N][C@@H]([C])C(=O)[N][C@@H]([C]([C])[C])C(=O)[N][C@@H]([C][C][C][C][N])C(=O)[N][C@@H]([C][C][C][C][N])C(=O)[N][C@@H]([C]c1ccc([O])cc1)C(=O)[N][C@@H]([C][C]([C])[C])C(=O)[N][C@@H]([C])C(=O)[N][C@@H]([C])C(=O)[N][C@@H]([C]([C])[C])C(=O)[N][C@@H]([C][C]([C])[C])C([N])=O)[C@@H]([C])[O] [PACAP(2-27)]	0.03
H-TDSYSRYRKQMAVKKYLAAVLGKRYKQRVKNK-NH2 [PACAP(7-38)]	0.01
H-SRYRKQMAVKKYLAAVLGKRYKQRVKNK-NH2 [PACAP(11-38)]	0.1
CCC(C)[C@H](NC(=O)CN)C(=O)N[C@@H](Cc1ccccc1)C(=O)N[C@H](C(=O)N[C@@H](CC(=O)O)C(=O)N[C@@H](CO)C(=O)N[C@@H](Cc1ccc(O)cc1)C(=O)N[C@@H](CO)C(=O)N[C@@H](CCCN=C(N)N)C(=O)N[C@@H](Cc1ccc(O)cc1)C(=O)N[C@@H](CCCN=C(N)N)C(=O)N[C@@H](CCCCN)C(=O)N[C@@H](CCC(N)=O)C(=O)N[C@@H](CCSC)C(=O)N[C@@H](C)C(=O)N[C@H](C(=O)N[C@@H](CCCCN)C(=O)N[C@@H](CCCCN)C(=O)N[C@@H](Cc1ccc(O)cc1)C(=O)N[C@@H](CC(C)C)C(=O)N[C@@H](C)C(=O)N[C@@H](C)C(=O)N[C@H](C(=O)N[C@@H](CC(C)C)C(=O)NCC(=O)N[C@@H](CCCCN)C(=O)N[C@@H](CCCN=C(N)N)C(=O)N[C@@H](Cc1ccc(O)cc1)C(=O)N[C@@H](CCCCN)C(=O)N[C@@H](CCC(N)=O)C(=O)N[C@@H](CCCN=C(N)N)C(=O)N[C@H](C(=O)N[C@@H](CCCCN)C(=O)N[C@@H](CC(N)=O)C(=O)N[C@@H](CCCCN)C(N)=O)C(C)C)C(C)C)C(C)C)[C@@H](C)O (some centres undefined) [PACAP(4-38)] (H-G[Ile(3ξ)]FTDSYSRYRKQMAVKKYLAAVLGKRYKQRVKNK-NH2)	0.02
H-TDSYSRYRKQMAVKKYLAAVL-NH2 [PACAP(6-27)]	3
CCC(C)[C@H](NC(=O)CNC(=O)[C@H](CC(=O)O)NC(=O)[C@H](Cc1ccccc1)NC(=O)[C@@H](N)Cc1cnc[nH]1)C(=O)N[C@@H](Cc1ccccc1)C(=O)N[C@H](C(=O)N[C@@H](CC(=O)O)C(=O)N[C@@H](CO)C(=O)N[C@@H](Cc1ccc(O)cc1)C(=O)N[C@@H](CO)C(=O)N[C@@H](CCCN=C(N)N)C(=O)N[C@@H](Cc1ccc(O)cc1)C(=O)N[C@@H](CCCN=C(N)N)C(=O)N[C@@H](CCCCN)C(=O)N[C@@H](CCC(N)=O)C(=O)N[C@@H](CCSC)C(=O)N[C@@H](C)C(=O)N[C@H](C(=O)N[C@@H](CCCCN)C(=O)N[C@@H](CCCCN)C(=O)N[C@@H](Cc1ccc(O)cc1)C(=O)N[C@@H](CC(C)C)C(=O)N[C@@H](C)C(=O)N[C@@H](C)C(=O)N[C@H](C(=O)N[C@@H](CC(C)C)C(=O)NCC(=O)N[C@@H](CCCCN)C(=O)N[C@@H](CCCN=C(N)N)C(=O)N[C@@H](Cc1ccc(O)cc1)C(=O)N[C@@H](CCCCN)C(=O)N[C@@H](CCC(N)=O)C(=O)N[C@@H](CCCN=C(N)N)C(=O)N[C@H](C(=O)N[C@@H](CCCCN)C(=O)N[C@@H](CC(N)=O)C(=O)N[C@@H](CCCCN)C(N)=O)C(C)C)C(C)C)C(C)C)[C@@H](C)O (some centres undefined) [[Phe2]PACAP(1-38)] (H-HFDG[Ile(3ξ)]FTDSYSRYRKQMAVKKYLAAVLGKRYKQRVKNK-NH2)	0.002
